Laboratory results from patent publication US10227331B2 (priority 2015, dated 2019).
Where two headings read alike, the source gives them in different places.

Columns and labels:
IMP-1 = IMP-1 (Serratia marcescens, UniProt P52699); assay: biochemical; type: biochemical
Procedure, shortened: (§1)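 Two-hour, 25° C incubation of enzyme with inhibitor and CCF2-FA (7-hydroxycoumarin–cephalosporin–fluorescein). Fluorescence read-out; IC50 via 4-parameter fit.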

NDM-1 = NDM-1 (Klebsiella pneumoniae, UniProt C7C422); assay: biochemical; type: biochemical; conditions: CCF2-FA substrate, 2 hours at 25° C; read-out: NDM-1 IC50
Procedure, shortened: as §1

VIM-1 = VIM-1 (Pseudomonas aeruginosa (strain ATCC 15692 / DSM 22644 / CIP 104116 / JCM 14847 / LMG 12228 / 1C / PRS 101 / PAO1), UniProt A0A0F7KYQ8); assay: biochemical; conditions: CCF2-FA substrate, 2 hours at 25° C
Procedure, shortened: as §1

[1] = tested on: Escherichia coli expressing NDM-1 (CLB30005, CLB30016); type: cell-based; conditions: NDM-1 (CLB30016), with imipenem 1 μg/ml, 95% inhibition of bacterial growth
Procedure, shortened: (§2)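 Colonies from overnight 35 °C blood-agar cultures were suspended in saline, diluted 1:100 into 1.1× CAMHB and exposed to test compound with or without imipenem at 1 μg/ml. After 22–24 h at 35 °C, absorbance was read to find the concentration restoring imipenem susceptibility.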

[2] = tested on: Klebsiella pneumoniae expressing VIM-1 (IHMA599644); type: cell-based; conditions: VIM-1 (IHMA599644), with imipenem 1 μg/ml, 95% inhibition of bacterial growth
Procedure, shortened: as §2

[3] = tested on: Serratia marcescens expressing IMP-1 (CL5741); type: cell-based; conditions: IMP-1 (CL5741), with imipenem 1 μg/ml, 95% inhibition of bacterial growth
Procedure, shortened: as §2

[4] = tested on: P. aeruginosa expressing IMP-1, efflux+ (MB9798); type: cell-based, Pseudomonas aeruginosa; conditions: for P. aeruginosa expressing IMP-1, efflux+ (MB9798) MITC95: imipenem at 2 μg/mL, in the presence of a class A, C, D serine β-lactamase inhibitor closely related to relebactam; for Efflux ratio: ratio MITC95 PA_9798/MITC95 PA_9799
Text: (§3) The strain background is Pseudomonas aeruginosa PAO1.

[5] = tested on: P. aeruginosa expressing IMP-1, efflux− (MB9799); assay: Efflux: concentration of MBL inhibitor which restores susceptibility to imipenem; type: cell-based, Pseudomonas aeruginosa; conditions: imipenem at 2 μg/mL, in the presence of a class A, C, D serine β-lactamase inhibitor closely related to relebactam
Text: as §3

[6] = CCF2-FA substrate, 2 hours at 25° C, read-out: IMP-1 IC50

IMP-1, sequence (P52699 whole entry, looked up, species assumed): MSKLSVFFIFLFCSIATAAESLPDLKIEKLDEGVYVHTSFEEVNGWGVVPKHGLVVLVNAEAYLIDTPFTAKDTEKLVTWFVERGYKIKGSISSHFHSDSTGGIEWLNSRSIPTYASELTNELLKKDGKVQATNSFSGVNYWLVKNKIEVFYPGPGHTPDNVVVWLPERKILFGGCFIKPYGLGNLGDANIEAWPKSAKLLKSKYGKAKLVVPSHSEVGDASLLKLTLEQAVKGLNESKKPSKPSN
NDM-1, sequence (C7C422 whole entry, looked up, species assumed): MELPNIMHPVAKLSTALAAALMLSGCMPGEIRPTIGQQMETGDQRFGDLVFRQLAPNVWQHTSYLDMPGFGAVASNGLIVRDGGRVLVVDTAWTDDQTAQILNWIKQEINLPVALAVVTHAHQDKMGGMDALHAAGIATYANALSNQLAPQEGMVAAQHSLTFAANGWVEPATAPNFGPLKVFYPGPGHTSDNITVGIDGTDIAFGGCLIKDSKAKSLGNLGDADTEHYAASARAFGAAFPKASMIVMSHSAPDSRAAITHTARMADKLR

Row | Structure (SMILES) | IC50 (IMP-1; [6]) [nM] | IC50 (NDM-1) [nM] | IC50 (VIM-1) [nM] | Escherichia coli MITC95 [1] [µM] | Klebsiella pneumoniae MITC95 [2] [µM] | Serratia marcescens MITC95 [3] [µM] | P. aeruginosa expressing IMP-1, efflux+ (MB9798) MITC95 [4] [µM] | Efflux ratio [4] | P. aeruginosa expressing IMP-1, efflux− (MB9799) MITC95 [5] [µM] | IC50 (IMP-1) [nM]
1 | NCCS(=O)(=O)c1ccc(-c2cccc3[nH]c(CN)nc23)c(-c2nn[nH]n2)c1S(N)(=O)=O [Example 305, 6-((2-aminoethyl)sulfonyl)-3-(2-(aminomethyl)-1H-benzo[d]imidazol-4-yl)-2-(2H-tetrazol-5-yl)benzenesulfonamide] | 1.91 | 0.643 | 0.493 | 1.563 | 1.563 | 0.7813 | 1.563 | 2.00 | 0.7813 | –
2 | NCCc1nc2c(-c3ccc(S(=O)(=O)CCN)c(S(N)(=O)=O)c3-c3nn[nH]n3)cccc2[nH]1 [Example 306, 3-(2-(2-aminoethyl)-1H-benzo[d]imidazol-4-yl)-6-((2-aminoethyl)sulfonyl)-2-(2H-tetrazol-5-yl) benzenesulfonamide] | 2.84 | 0.848 | 0.374 | 0.7813 | 1.563 | 0.7813 | 1.563 | 2.00 | 0.7813 | –
3 | NCCS(=O)(=O)c1ccc(-c2cccc3[nH]c(C(F)(F)CN)nc23)c(-c2nn[nH]n2)c1S(N)(=O)=O [Example 307, 3-(2-(2-amino-1,1-difluoroethyl)-1H-benzo[d]imidazol-4-yl)-6-((2-aminoethyl)sulfonyl)-2-(2H-tetrazol-5-yl) benzenesulfonamide] | 0.0868 | 0.0372 | 0.0306 | 0.7813 | 0.7813 | 0.7813 | 0.3906 | 1.00 | 0.3906 | –
4 | NCCS(=O)(=O)c1ccc(-c2cccc3[nH]c(C(F)(F)F)nc23)c(-c2nn[nH]n2)c1S(N)(=O)=O [Example 308, 6-((2-aminoethyl)sulfonyl)-2-(2H-tetrazol-5-yl)-3-(2-(trifluoromethyl)-1H-benzo[d]imidazol-4-yl)benzenesulfonamide] | 0.56 | 0.17 | 0.219 | 3.125 | 3.125 | 3.125 | 6.25 | 4.00 | 1.563 | –
5 | NS(=O)(=O)c1c(S(=O)(=O)C2CNC2)ccc(-c2cccc3sc(O)nc23)c1-c1nn[nH]n1 [Example 309, 6-(azetidin-3-ylsulfonyl)-3-(2-hydroxybenzo[d]thiazol-4-yl)-2-(2H-tetrazol-5-yl)benzenesulfonamide] | 0.256 | 0.0885 | 0.145 | 0.7813 | 3.125 | 3.125 | 3.125 | 2.00 | 1.563 | –
6 | Nc1ncccc1-c1cc(-c2ccc(S(=O)(=O)C3CNC3)c(S(N)(=O)=O)c2-c2nnn[nH]2)ccn1 [Example 310, 3-(2′-Amino-[2,3′-bipyridin]-4-yl)-6-(azetidin-3-ylsulfonyl)-2-(1H-tetrazol-5-yl)benzenesulfonamide] | 2.3 | 1.04 | 0.319 | 1.563 | 3.125 | 1.563 | 25 | 15.99 | 1.563 | –
7 | Nc1cc(-c2cc(-c3ccc(S(=O)(=O)C4CNC4)c(S(N)(=O)=O)c3-c3nnn[nH]3)ccn2)ccn1 [Example 311, 3-(2′-amino-[2,4′-bipyridin]-4-yl)-6-(azetidin-3-ylsulfonyl)-2-(1H-tetrazol-5-yl)benzenesulfonamide] | 2.32 | 0.921 | 0.315 | 3.125 | 3.125 | 1.563 | 50 | 31.99 | 1.563 | –
8 | NC[C@@H](O)CS(=O)(=O)c1ccc(-c2cccc3[nH]c(N)nc23)c(-c2nn[nH]n2)c1S(N)(=O)=O [Example 312, 3-(2-amino-1H-benzo[d]imidazol-4-yl)-6-((R)-3-amino-2-hydroxypropylsulfonyl)-2-(2H-tetrazol-5-yl)benzenesulfonamide] | 0.43 | 0.12 | 0.389 | 0.3477 | 0.8542 | 0.5573 | 0.2786 | 0.50 | 0.5573 | –
9 | NCCS(=O)(=O)c1ccc(-c2cccc3sc(N)nc23)c(-c2nn[nH]n2)c1S(N)(=O)=O [Example 313, 3-(2-aminobenzo[d]thiazol-4-yl)-6-((2-aminoethyl)sulfonyl)-2-(2H-tetrazol-5-yl)benzenesulfonamide] | 0.257 | 0.155 | 0.232 | 1.618 | 2.009 | 1.228 | 0.6138 | 0.69 | 0.8929 | –
10 | Nc1nc2c(-c3ccc(S(=O)(=O)CCO)c(S(N)(=O)=O)c3-c3nn[nH]n3)cccc2s1 [Example 314, 3-(2-aminobenzo[d]thiazol-4-yl)-6-((2-hydroxyethyl)sulfonyl)-2-(2H-tetrazol-5-yl)benzenesulfonamide] | 0.445 | 0.379 | 0.727 | 12.5 | 12.5 | 6.25 | 12.5 | 2.00 | 6.25 | –
11 | Nc1nc2c(-c3ccc(S(=O)(=O)C4CCNCC4)c(S(N)(=O)=O)c3-c3nn[nH]n3)cccc2s1 [Example 315, 3-(2-aminobenzo[d]thiazol-4-yl)-6-(piperidin-4-ylsulfonyl)-2-(2H-tetrazol-5-yl)benzenesulfonamide] | – | 0.113 | 0.251 | 1.563 | 3.125 | 1.563 | 0.7813 | 1.00 | 0.7813 | 0.249
12 | Nc1nc2c(-c3ccc(S(=O)(=O)C4CCNCC4)c(S(N)(=O)=O)c3-c3nn[nH]n3)cccc2[s+]1[O-] (stereo not drawn) [Example 316, 3-(2-amino-1-oxidobenzo[d]thiazol-4-yl)-6-(piperidin-4-ylsulfonyl)-2-(2H-tetrazol-5-yl)benzenesulfonamide] | 0.835 | 0.284 | 0.779 | 6.25 | 12.5 | 12.5 | 6.25 | 1.00 | 6.25 | –
13 | Nc1nc2c(-c3ccc(S(=O)(=O)C4CNC4)c(S(N)(=O)=O)c3-c3nn[nH]n3)cccc2s1 [Example 317, 3-(2-aminobenzo[d]thiazol-4-yl)-6-(azetidin-3-ylsulfonyl)-2-(2H-tetrazol-5-yl)benzenesulfonamide] | 0.227 | 0.0312 | 0.189 | 1.172 | 1.563 | 0.7813 | 0.7813 | 1.00 | 0.7813 | –
14 | NS(=O)(=O)c1c(S(=O)(=O)C2CCNCC2)ccc(-c2cccc3c2CNC3=O)c1-c1nn[nH]n1 [Example 318, 3-(1-oxoisoindolin-4-yl)-6-(piperidin-4-ylsulfonyl)-2-(2H-tetrazol-5-yl)benzenesulfonamide] | 27.1 | 1.95 | 0.517 | 12.5 | 12.5 | 25 | 25 | 4.00 | 6.25 | –
